Structures can show the parent of a compound that is named as a salt.

The target in the test is human ENPP2 (Homo sapiens (Human), UniProt Q13822). Put plainly: Inhibitory activity on human ENPP2 (FS-3 assay). As to conditions: human ENPP2, FS-3 substrate, Table 2. The class given is biochemical. How it is done: Two-fold dilution of each test compound solution (10 μM, 100% dimethyl sulfoxide) is carried out on 96-well V bottom plate (Costar 3363). After ten-fold dilution of each the test compound solution (100% dimethyl sulfoxide) with deionized distilled water, 10 μL of the diluted each compound solution (10% dimethyl sulfoxide) was aliquoted to a black flat bottom 96-well plate (Costar 3915).
Usually IC50 stands for the concentration at which inhibition is half-maximal. `O=C(Cn1cc(-c2cnc(NC3Cc4ccccc4C3)nc2)c(OCc2ccccc2)n1)N1CCOCC1` [Compound 64, 2-[3-(benzyloxy)-4-{2-[(2,3-dihydro-1H-inden-2-yl)amino]pyrimidin-5-yl}-1H-pyrazol-1-yl]-1-(morpholin-4-yl)ethan-1-one] returned an IC50 of 3 nM.

For `O=C(Cn1cc(-c2cnc(NC3Cc4ccccc4C3)nc2)c(OCCN2CCNCC2)n1)N1CCc2[nH]nnc2C1` [Compound 67, 2-(4-{2-[(2,3-dihydro-1H-inden-2-yl)amino]pyrimidin-5-yl}-3-[2-(piperazin-1-yl)ethoxy]-1H-pyrazol-1-yl)-1-{1H,4H,5H,6H,7H-[1,2,3]triazolo[4,5-c]pyridin-5-yl}ethan-1-one], the IC50 came to 6.1 nM.

As to `O=C(Cn1cc(-c2cnc(NC3Cc4ccccc4C3)nc2)c(OC2CCN(CC(F)F)CC2)n1)N1CCc2[nH]nnc2C1` [Compound 71, 2-(3-{[1-(2,2-difluoroethyl)piperidin-4-yl]oxy}-4-{2-[(2,3-dihydro-1H-inden-2-yl)amino]pyrimidin-5-yl}-1H-pyrazol-1-yl)-1-{1H,4H,5H,6H,7H-[1,2,3]triazolo[4,5-c]pyridin-5-yl}ethan-1-one], the IC50 was found to be 3.6 nM.

`O=C(Cn1cc(-c2cnc(NC3Cc4ccccc4C3)cn2)cn1)N1CCc2[nH]nnc2C1` [Compound 59, 2-(4-{5-[(2,3-dihydro-1H-inden-2-yl)amino]pyrazin-2-yl}-1H-pyrazol-1-yl)-1-{1H,4H,5H,6H,7H-[1,2,3]triazolo[4,5-c]pyridin-5-yl}ethan-1-one] registered a concentration for half-maximal inhibition (IC50) of 11.1 nM.

In turn, `O=C(Cn1cc(-c2cnc(NC3Cc4ccccc4C3)nc2)c(C(=O)N2CCNCC2)n1)N1CCc2[nH]nnc2C1` [Compound 77, 2-(4-{2-[(2,3-dihydro-1H-inden-2-yl)amino]pyrimidin-5-yl}-3-(piperazine-1-carbonyl)-1H-pyrazol-1-yl)-1-{1H,4H,5H,6H,7H-[1,2,3]triazolo[4,5-c]pyridin-5-yl}ethan-1-one hydrochloride] had an IC50 of 6.5 nM.

With `CN1CCN(Cc2nn(CC(=O)N3CCc4[nH]nnc4C3)cc2-c2cnc(NC3Cc4ccccc4C3)nc2)CC1=O` [Compound 87, 4-[(4-{2-[(2,3-dihydro-1H-inden-2-yl)amino]pyrimidin-5-yl}-1-(2-oxo-2-{1H,2H,3H,4H,5H,6H,7H-[1,2,3]triazolo[4,5-c]pyridin-5-yl}ethyl)-1H-pyrazol-3-yl)methyl]-1-methylpiperazin-2-one], the concentration for half-maximal inhibition (IC50) was determined as 3.1 nM.

In turn, `O=C(Cn1cc(-c2cnc(NC3Cc4ccccc4C3)nc2)c(CN2CCC(F)(F)CC2)n1)N1CCc2[nH]nnc2C1` [Compound 85, 2-{3-[(4,4-difluoropiperidin-1-yl)methyl]-4-{2-[(2,3-dihydro-1H-inden-2-yl)amino]pyrimidin-5-yl}-1H-pyrazol-1-yl}-1-{1H,4H,5H,6H,7H-[1,2,3]triazolo[4,5-c]pyridin-5-yl}ethan-1-one hydrofluoride] had an IC50 of 2.2 nM.

`O=C(Cn1cc(-c2cnc(NC3Cc4ccccc4C3)nc2)c(CN2CCc3ccccc32)n1)N1CCc2[nH]nnc2C1` [Compound 83, 2-(4-{2-[(2,3-dihydro-1H-inden-2-yl)amino]pyrimidin-5-yl}-3-(2,3-dihydro-1H-indol-1-ylmethyl)-1H-pyrazol-1-yl)-1-{1H,4H,5H,6H,7H-[1,2,3]triazolo[4,5-c]pyridin-5-yl}ethan-1-one] had an IC50 of 2.1 nM.

On to `O=C(Cn1cc(-c2cnc(NC3Cc4ccccc4C3)nc2)c(C(=O)N2CCCCC2)n1)N1CCc2[nH]nnc2C1` [Compound 76, 2-(4-{2-[(2,3-dihydro-1H-inden-2-yl)amino]pyrimidin-5-yl}-3-(piperidine-1-carbonyl)-1H-pyrazol-1-yl)-1-{1H,4H,5H,6H,7H-[1,2,3]triazolo[4,5-c]pyridin-5-yl}ethan-1-one], for which the IC50 was found to be 3 nM.

As for `O=C(Cc1nnc(-c2cnc(NC3Cc4ccccc4C3)nc2)o1)Nc1ccc(C(=O)O)cc1` [Compound 50, 4-[2-(5-{2-[(2,3-dihydro-1H-inden-2-yl)amino]pyrimidin-5-yl}-1,3,4-oxadiazol-2-yl)acetamido]benzoic Acid], the IC50 amounted to 4.5 nM.

Values taken from patent US11548883B2, “Compounds as autotaxin inhibitors and pharmaceutical compositions comprising the same” (LegoChem Biosciences, Inc., priority 2017, dated 2023).
